“And” between values parts separate entries of the source, which are not always exact repeats. Equal values may be shown once.
Experiments:
[1] = target: T1, PfENT1WT (Plasmodium falciparum, UniProt Q8IDM6); experiment: biochemical; type: binding
T1 construct: 10xHis (N); made in house; host or cells: Sf9 insect cells (baculovirus)
Procedure: For the in vitro binding assay, Sf9 cells were solubilized in lysis buffer containing 2% (w/v) n-dodecyl-β-D-maltopyranoside (DDM, Anatrace) and protease inhibitor cocktail (0.8 μM aprotinin, 2 μM pepstatin, and 5 μg/ml leupeptin) at 4 °C for 2 h. The soluble supernatant was collected via centrifugation and incubated with Ni-NTA resin (QIAGEN) at 4 °C for 1 h. The resin was washed and eluted using lysis buffer containing 0.05% (w/v) DDM and 30 mM/300 mM imidazole. The protein was further purified by size-exclusion chromatography (Superdex 200 Increase 10/300; GE Healthcare) in buffer containing 25 mM MES (pH 6.0), 150 mM NaCl, and 0.05% (w/v) DDM. The peak fractions were pooled and concentrated to 10~50 μM for the nucleoside-binding assay.
The binding affinity between wild-type and mutant PfENT1 with nucleosides and GSK4 was measured using a Micro-Cal ITC200 (Malvern). All proteins were prepared in 25 mM MES (pH 6.0), 150 mM NaCl, and 0.05% (w/v) DDM. Nucleosides (5~10 mM) and GSK4 (100-200 μM) dissolved in the same buffer were titrated against 20–50 μM PfENT1 proteins at 25 °C. PEAQ-ITC analysis software (MicroCal) was employed to analyze the data. All titrations were repeated three times.

[2] = target: T2, PfENT1 (Plasmodium falciparum, UniProt Q8IDM6); experiment: cell-based; type: cell-based; details: uptake without competitor set as 100%, Fig. 1c; for remaining activity at 5000 µM: 0.5 h, read-out: Uptake of [3H]-inosine (Percentage of PfENT1 WT), competition by nonradioactive nucleoside/nucleobase 5 mM, 30 min, 30 °C; for Uptake of [3H]-inosine (Percentage of PfENT1 WT): competition by nonradioactive nucleoside/nucleobase 5 mM, 30 min, 30 °C
T2 construct: expressed in transfected cells; host or cells: S. cerevisiae BY4741, FUI1 deleted, PfENT1 knock-in under the TEF1 promoter
Procedure: The S. cerevisiae strain (ATCC, #201388) BY4741 (MATa his3Δ1 leu2Δ0 met15Δ0 ura3Δ0) was used as the starting yeast strain. Yeast strains were cultured in YPD medium (20 g/L peptone, 10 g/L yeast extract, and 20 g/L dextrose). The antibiotic G418 was supplemented at a concentration of 250 μg/mL to select strains carrying the KanMX marker. E. coli DH5α was used for subcloning.
Codon-optimized PfENT1 (for expression in yeast) was synthesized by Sangon Biotech. The carboxyl terminus of PfENT1 was HA-tagged through PCR. The TEF1p promoter and PGK1t terminator were amplified from BY4741 genomic DNA. Overlap PCR was applied to generate the gene overexpression cassette of PfENT1 (TEF1p promoter-PfENT1-PGK1t terminator). The two 600-bp homologous arms corresponding to the upstream and downstream regions of the FUI1 gene were amplified from BY4741 genomic DNA. The gene cassette of the ‘TEF1p promoter-PfENT1-PGK1t terminator’ together with the two homologous arms was cloned into the PUC19 plasmid through Gibson assembly, generating the final plasmid PUC19: PfENT1. PfENT1 mutations were generated using point mutation and verified by Sanger sequencing. The spacer targeting the FUI1 gene (5ʹ-[…]-3ʹ) was cloned into the pCas-BsaI plasmid to generate the pCas-FUI1 plasmid as described previously.
To obtain fui1Δ and PfENT1 (or its mutations) overexpression in the S. cerevisiae strain, 1 μg pCas-FUI1 plasmid and 15 μg PUC19:PfENT1 were transformed into yeast using the LiAc/ssDNA/PEG method. Then, the strains were plated on a YPD plate supplemented with G418. Clones were screened using PCR and finally verified through Sanger sequencing.
Cells were grown overnight in YPD medium to mid-log phase and harvested by centrifugation at 3000 × g for 5 min. Cells were washed three times in 2% glucose. The yeast pellets were resuspended in uptake assay buffer (25 mM Tris-HCl 8.0,150 mM NaCl, 2% glucose) to a final concentration of 2 × 10^8 cells mL^–1. The uptake assay was initiated by combining 100 μL of prewarmed (30 °C) cells and 100 μL uptake assay buffer mixture: 25 mM Tris-HCl 8.0, 150 mM NaCl, 2% glucose, 200 nM [^3H] Inosine ([8-^3H] inosine; 20 Ci mmol^–1, American Radiolabeled Chemicals). Cells were removed onto a membrane filter at the appropriate times to generate the time course. After washing by vacuum filtration with 2 ml ice-cold 2% glucose, the radioactivity retained on the filter was incubated with 1 mL of ULTIMA GOLD scintillation fluid (Perkin Elmer, 77-15311). Counts were measured using a liquid scintillation analyzer (Perkin Elmer, Tri-Carb 5110TR).
For competition assays, the indicated nucleosides and nucleobase were added into the external uptake assay buffer (25 mM Tris-HCl 8.0, 150 mM NaCl, and 2% glucose) to a final concentration of 5 mM, and the transport reaction was stopped at 30 min. The reading of the competition assays was normalized against the one without a competitor, which had the uptake of radiolabeled inosine set as 100%. All uptake assays were performed at 30 °C and repeated three times. Error bars represent the s.d. The final result was analyzed in the GraphPad Prism 8 software ([…]).

[3] = ITC, 25 °C, pH 6.0, mean ± SD (n = 3), Fig. 1a and text

T1 sequence (Q8IDM6 whole entry): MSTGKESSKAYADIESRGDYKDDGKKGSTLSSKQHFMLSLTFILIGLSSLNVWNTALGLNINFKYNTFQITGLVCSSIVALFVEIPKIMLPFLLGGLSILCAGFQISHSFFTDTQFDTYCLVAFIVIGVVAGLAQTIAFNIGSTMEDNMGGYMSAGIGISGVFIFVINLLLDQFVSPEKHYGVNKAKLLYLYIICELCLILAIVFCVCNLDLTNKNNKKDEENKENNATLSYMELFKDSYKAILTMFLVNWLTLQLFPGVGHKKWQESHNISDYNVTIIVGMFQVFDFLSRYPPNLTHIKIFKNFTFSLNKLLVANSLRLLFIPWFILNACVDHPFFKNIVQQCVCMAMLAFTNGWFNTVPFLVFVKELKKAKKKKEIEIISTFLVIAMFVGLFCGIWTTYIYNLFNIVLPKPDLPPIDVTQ
T2 sequence (Q8IDM6 whole entry): as above

| SMILES | binding affinity (Kd) [1, 3] | remaining activity at 5000 µM [2] | Uptake of [3H]-inosine (Percentage of PfENT1 WT) [2] | Uptake of [3H]-inosine (Percentage of PfENT1 WT) ([2]; listed as thymidine) | Kd ([1]; Kd, Mean and Mean ± SD, source data Figure 1a) | Kd ([1]; Kd, N=3 (individual experiments), source data Figure 1a) | Kd ([1]; binding affinity (Kd), ITC, 25 °C, pH 6.0, mean ± SD (n = 3), Fig. 1a and text) |
| --- | --- | --- | --- | --- | --- | --- | --- |
| O=c1ccn([C@@H]2O[C@H](CO)[C@@H](O)[C@H]2O)c(=O)[nH]1 [Uridine, uridine] | undetectable | 81% | partially reduce inosine uptake |  |  |  |  |
| O=c1[nH]cnc2nc[nH]c12 [Hypoxanthine, hypoxanthine] | undetectable | 23% | partial inhibition |  |  |  |  |
| Cc1cn([C@H]2C[C@H](O)[C@@H](CO)O2)c(=O)[nH]c1=O [Thymidine, thymidine] | undetectable | 42% | 41% | partially reduce inosine uptake |  |  |  |
| Nc1ccn([C@@H]2O[C@H](CO)[C@@H](O)[C@H]2O)c(=O)n1 [Cytidine, cytidine] | undetectable |  | did not influence inosine uptake |  |  |  |  |
| Nc1ncnc2c1ncn2[C@@H]1O[C@H](CO)[C@@H](O)[C@H]1O [Adenosine, adenosine] |  | 18% | relatively lower than that of inosine and guanosine |  |  |  |  |
| Nc1nc2c(ncn2[C@@H]2O[C@H](CO)[C@@H](O)[C@H]2O)c(=O)[nH]1 [Guanosine, guanosine] |  | 10% | abolished |  | 186 µM | 172 µM and 179 µM and 207 µM | ~186 µM and 186 µM |

— PMC10050424, “Structural basis of the substrate recognition and inhibition mechanism of Plasmodium falciparum nucleoside transporter PfENT1” (Nature Communications, 2023)
